In US12622915B2, “Methods of treating PDE IV-mediated diseases or conditions” (Vanda Pharmaceuticals Inc., priority 2020, dated 2026):

Tested on: IMQ induced psoriasis
Description: Test Item Details • 1. Dexamethasone Cat. or Batch no.: BCBM4557V (sigma) • Vehicle for dexamethasone (Veh.1): acetone:ethanol (1:1) • Dose: 0.1 mg/ear & 0.25 mg in back skin • Dose volume: 20 μL/ear & 50 μL on back skin • 2. Crisaborole: PZ0037 (Sigma) • Vehicle (Veh.1): acetone:ethanol (1:1) • Dose: 0.1 mg/ear & 0.25 mg in back skin • Dose volume: 20 μL/ear, 50 μL on back skin • 3. Compound of Formula (I) • Vehicle (Veh.1): acetone:ethanol (1:1) • Dose: 0.1 mg/ear & 0.25 mg in back skin • Dose volume: 20 μL/ear, 50 μL on back skin Dexamethasone and Test Item Preparation and Application: • Strength=5 mg/ml
Application=100 μg/20 pit per each ear+250 μg/50 μL on the back G2 to G4 receive Dexamethasone, Crisaborole or test item: Daily topical treatment (D0-D6): 0.1 mg in 20 μl per ear x both the ears+0.25 mg in 50 μl (on the back) 6-8 hrs after IMQ application.
Disease Induction: Application of 5% IMQ cream 40 mg (back) and 5 mg (per ear—Inner surface) daily from day 0-6.
Treatment: 0.5% Dexamethasone solution: 0.25 mg (back) and 0.1 mg (per ear) 8 hrs post IMQ. • Day −2—Depilation on back region • Day 0—Observations (Body weight; ear thickness using digital microcaliper) • Day 2—Observations (Body weight; ear thickness using digital microcaliper) • Day 4—Observations (Body weight; ear thickness using digital microcaliper) • Day 6—Observations (Body weight; ear thickness using digital microcaliper); Blood collection (PK) and Termination {2 hrs after last dose) • Ear collection: PK, Cytokine, MPO, Thickness • Back skin collection, scoring and thickness measurement • Histopathology (optional)
The dorsal posterior area (2 cm×2 cm) of animals is depilated using a hair trimmer. 5% Imiquimod cream: 50 mg/animal (40 mg on the shaved back+5 mg each on the inner part of right and left ear) QD is applied on days 0 to 5 (Groups 1-4).
The body weight is recorded individually for all animals at receipt, day of randomization, prior to treatment, and once in two days thereafter. The animals are observed for mortality at regular intervals.
2 hrs post compound treatment on day 6, all the animals are euthanized, and ear tissues are collected. The right ear is flash frozen in liquid nitrogen and stored at −80° C. until homogenization for MPO and cytokine estimation.
The half of the left ear is used for drug concentration measurement. The other half of the left ear tissue is used for histopathology. The back skin is collected for visual assessment (scoring) and histopathology.
MPO analysis: Snap frozen ear tissue samples are homogenized in 1× assay buffer provided in the kit. The homogenates are centrifuged at 8000 g for 10 minutes in a refrigerated centrifuge. The supernatants are discarded, and the pellet is resuspended in solubilisation buffer (1× assay buffer containing 0.5% HTABr). The samples are homogenized and subjected to three rounds of freeze thaw followed by brief sonication for 10s. The samples are centrifuged at 12,000 g for 10 minutes in a refrigerated centrifuge and the resulting supernatants are analysed for MPO levels based on a fluorometric detection kit. The Kit utilizes a non-fluorescent detection reagent, which is oxidized in the presence of hydrogen peroxide and MPO to produce its fluorescent analogue. (Enzo Life Sciences; ADI-907-029).
Histopathology: At study termination, posterior dorsal skin and ear skin samples are collected. Skin samples are processed using routine histopathological methods and 4-5 μm paraffin sections are prepared. Tissue sections (3 serial sections/animal) are stained with Hematoxylin and eosin (H&E) to evaluate acanthosis, hyper/parakeratosis and inflammatory cellular infiltration in dermis. Severity of lesions are assessed semi quantitatively on a scale of 0-4 by two independent pathologists (0—normal, 1—mild degree, 2—moderate degree, 3—severe degree and 4—extensive or multiple locations) for each parameter in a blinded manner.

| Structure (SMILES) | MPO activity in ear tissue homogenates (day 6, topical 0.5%, vs IMQ control) | Back skin thickness (day 6 at termination, topical 0.5%, vs IMQ control) | Cumulative clinical scores (erythema, skin thickness, scales) (topical 0.5%, back skin, maximum score 12, vs IMQ control) | Ear thickness (topical 0.5%, daily, vs IMQ control) | Overall cumulative HP scores of ear skin (topical 0.5%, maximum score 16, vs IMQ control) | Spleen weight or normalized spleen weight (topical 0.5%, vs IMQ control) | Cytokine levels in ear tissue homogenates (topical treatment, vs IMQ control) | Body weight / body weight loss (mouse, in vivo) |
| --- | --- | --- | --- | --- | --- | --- | --- | --- |
| N#Cc1ccc(Oc2ccc3c(c2)COB3O)cc1 [Crisaborole, reference compound] | do not show significant inhibition | do not show significant reduction | significant reduction in the cumulative clinical scores on day 6 | significant reduction in ear thickness on day 6 | significant reduction | do not show significant reduction | significant reduction in few of the proinflammatory cytokines |  |
| C[C@@H]1C[C@H]2[C@@H]3CCC4=CC(=O)C=C[C@]4(C)[C@@]3(F)[C@@H](O)C[C@]2(C)[C@@]1(O)C(=O)CO [Dexamethasone, reference compound] |  |  |  |  |  |  |  | significant body weight loss |
